Test system: RNase activity in a processed tissue
Assay: Inhibition of RNase activity in processed tissue during IHC staining
Details: compared to other commercially available RNase inhibitors
Procedure: In one embodiment of the invention, the invention provides methods that preserve or maintain RNA quality and content in an IHC sample, such as for LCM, by use of a ribonucleoside vanadyl complex (RVC) as an RNase inhibitor. […] Use of RVCs is preferred in the practice of the invention over other RNase inhibitors and allows for performance of IHC staining of samples for LCM and downstream gene expression analysis.
The immunostaining was performed on frozen, acetone fixed, sections. RVCs (Ribonucleoside Vanadyl Complexes, Sigma catalog #R3380; Berger et al. Biochemistry 1979, 18:51431; Pukas et al., Biochemistry 1982, 21:46023) at 20 mM were added to all the acts of the staining including primary antibody solution, secondary antibody solution, and rinsing solutions (phosphate buffered saline or PBS). The processing was as follows:
IHC staining was performed on frozen, acetone fixed sections. All reagent solutions were prepared with nuclease free PBS containing a RVC RNase inhibitor and kept at +4° C. The slides were removed from −80° C. storage, 30 seconds are allowed for the condensation to disappear prior to fixing. The staining procedure was done at +4° C. by keeping the slides on a cold block through all parts of the procedure: […]

Ribonucleoside Vanadyl Complexes [RVCs]
inhibition of RNase activity in a processed tissue: superior inhibition of RNase activity

— patent US20040265840A1, “Preservation of RNA quality and content in tissue sections during immunohistochemistry” (priority 2002, published 2004)
